Results taken from article PMC11684019, “Unveiling the Antimycobacterial Potential of Novel 4-Alkoxyquinolines: Insights into Selectivity, Mechanism of Action, and In Vivo Exposure” (Journal of Medicinal Chemistry, 2024).
Converted amounts (≈) assume the structure as drawn.

Test system: M. tuberculosis H37Rv strain
Assay: microbe, parasite or virus in culture
Assay type: cell-based, Mycobacterium tuberculosis
Conditions: M. tuberculosis H37Rv, resazurin-based assay

Point of comparison: `COc1ccc2nc(C)cc(OCCCNc3ccc(C(F)(F)F)cc3)c2c1` [8f, N-(3-((6-methoxy-2-methylquinolin-4-yl)oxy)propyl)-4-(trifluoromethyl)aniline], MIC 3.20 µM (≈ 1.25 µg/mL). Against it:
- CCc1ccc(NCCCOc2cc(CC)nc3ccc(Cl)cc23)cc1 [8q, N-(3-((6-chloro-2-ethylquinolin-4-yl)oxy)propyl)-4-ethylaniline] — 15-fold lower, 0.22 µM (≈ 0.0812 µg/mL)
- CCc1cc(OCCCNc2ccc(Cl)cc2)c2cc(Br)ccc2n1 [8u, N-(3-((6-bromo-2-ethylquinolin-4-yl)oxy)propyl)-4-chloroaniline] — 17-fold lower, 0.19 µM (≈ 0.0798 µg/mL)
- COc1ccc2nc(C)cc(OCCCNc3ccc(C(C)C)cc3)c2c1 [8j, 4-Isopropyl-N-(3-((6-methoxy-2-methylquinolin-4-yl)oxy)propyl)aniline] — 29-fold lower, 0.11 µM (≈ 0.0401 µg/mL)
- COc1ccc2nc(C)cc(OCCCNc3ccc(Cl)cc3)c2c1 [8c, 4-Chloro-N-(3-((6-methoxy-2-methylquinolin-4-yl)oxy)propyl)aniline] — 15-fold lower, 0.22 µM (≈ 0.0785 µg/mL)
- Cc1cc(OCCCNc2ccc(OC(F)(F)F)cc2)c2cc(Cl)ccc2n1 [8m, N-(3-((6-Chloro-2-methylquinolin-4-yl)oxy)propyl)-4-(trifluoromethoxy)aniline] — 17-fold lower, 0.19 µM (≈ 0.0781 µg/mL)
- COc1ccc2nc(C)cc(OCCCNc3ccccc3)c2c1 [8a, N-(3-((6-methoxy-2-methylquinolin-4-yl)oxy)propyl)aniline] — 13-fold lower, 0.25 µM (≈ 0.0806 µg/mL)
- CCc1cc(OCCCNc2ccc(Br)cc2)c2cc(Cl)ccc2n1 [8p, 4-Bromo-N-(3-((6-chloro-2-ethylquinolin-4-yl)oxy)propyl)aniline] — 8.4-fold lower, 0.38 µM (≈ 0.16 µg/mL)
- COc1ccc2nc(C)cc(OCCCNc3ccc(F)cc3)c2c1 [8b, 4-Fluoro-N-(3-((6-methoxy-2-methylquinolin-4-yl)oxy)propyl)aniline] — 6.8-fold lower, 0.47 µM (≈ 0.16 µg/mL)
- CCc1cc(OCCCNc2ccc(Br)cc2)c2cc(Br)ccc2n1 [8v, 4-Bromo-N-(3-((6-bromo-2-ethylquinolin-4-yl)oxy)propyl)aniline] — 9.4-fold lower, 0.34 µM (≈ 0.158 µg/mL)
- Cc1cc(OCCCNc2ccc(Cl)cc2)c2cc(Cl)ccc2n1 [8k, 4-Chloro-N-(3-((6-chloro-2-methylquinolin-4-yl)oxy)propyl)aniline] — 15-fold lower, 0.22 µM (≈ 0.0795 µg/mL)
- Cc1cc(OCCCNc2ccc(Br)cc2)c2cc(Br)ccc2n1 [8s, 4-Bromo-N-(3-((6-bromo-2-methylquinolin-4-yl)oxy)propyl)aniline] — 9.1-fold lower, 0.35 µM (≈ 0.158 µg/mL)
- COc1ccc2nc(C)cc(OCCCNc3ccc(OC(F)(F)F)cc3)c2c1 [8g, N-(3-((6-methoxy-2-methylquinolin-4-yl)oxy)propyl)-4-(trifluoromethoxy)aniline] — 16-fold lower, 0.20 µM (≈ 0.0813 µg/mL)
- COc1ccc2nc(C)cc(OCCCNc3ccc(C)cc3)c2c1 [8h, N-(3-((6-methoxy-2-methylquinolin-4-yl)oxy)propyl)-4-methylaniline] — 13-fold lower, 0.24 µM (≈ 0.0807 µg/mL)
- CCc1cc(OCCCNc2ccc(Cl)cc2)c2cc(Cl)ccc2n1 [8o, 4-Chloro-N-(3-((6-chloro-2-ethylquinolin-4-yl)oxy)propyl)aniline] — 29-fold lower, 0.11 µM (≈ 0.0413 µg/mL)

Same assay, conditions: Mycobacterium tuberculosis, H37RV

`NNC(=O)c1ccncc1` [INH, isoniazid, reference compound] was tested, and the MIC was 2.3 µM (≈ 0.315 µg/mL).

Same assay, conditions: Mycobacterium tuberculosis; M. tuberculosis H37Rv, resazurin-based assay

With `CCc1nc2ccc(Cl)cn2c1C(=O)NCc1ccc(N2CCC(c3ccc(OC(F)(F)F)cc3)CC2)cc1` [Q203, telacebec, reference compound] the MIC was 0.009 µM (≈ 0.00501 µg/mL).

Test system: M. tuberculosis H37Rv strain in murine macrophage RAW 264.7 cells
Assay: not given
Assay type: cell-based, Mycobacterium tuberculosis
Conditions: not given

`NNC(=O)c1ccncc1` [INH, isoniazid, reference compound] was tested, and the “Kind of effect on intracellular growth of M. tuberculosis H37Rv” value was “bactericidal effect”.

`NNC(=O)c1ccncc1` [INH, isoniazid, reference compound] was tested, and the “Log10 CFU/well (Mean ± SD)” value was 2.25 ± 0.15 ^c^, ^d Log10 CFU/well.

Same assay, conditions: listed as isoniazid

`NNC(=O)c1ccncc1` [INH, isoniazid, reference compound] was tested, and the “Log10 CFU/well (Mean ± SD)” value was 2.25.
